Experimental findings from patent US10125126B2, “N-cycloalkyl-N-[(heterocyclylphenyl)methylene]-(thio)carboxamide derivatives” (BAYER CROPSCIENCE AG, priority 2012, dated 2018) are described below.

The first data set can be described thus: log P by HPLC on a reversed-phase column (C 18), EEC Directive 79/831 Annex V.A8. The conditions noted are these: HPLC on reversed-phase column (C 18), 40° C., 0.1% aqueous formic acid and acetonitrile, linear gradient 10% to 90% acetonitrile. In kind it is physicochemical. How it is done: In table 1, the log P values were determined in accordance with EEC Directive 79/831 Annex V.A8 by HPLC (High Performance Liquid Chromatography) on a reversed-phase column (C 18), using the method described below: Temperature: 40° C.; Mobile phases: 0.1% aqueous formic acid and acetonitrile; linear gradient from 10% acetonitrile to 90% acetonitrile. Calibration was carried out using unbranched alkan-2-ones (comprising 3 to 16 carbon atoms) with known log P values (determination of the log P values by the retention times using linear interpolation between two successive alkanones). lambda-max-values were determined using UV-spectra from 200 nm to 400 nm and the peak values of the chromatographic signals.
For `Cc1ccc(-c2cscc2C)c(CN(C(=O)c2c(C(F)F)nn(C)c2Cl)C2CC2)c1` [I.107], the logP (in general, a log measure of how a compound divides between an organic and an aqueous phase) amounted to 4.41. Consider `Cc1nc(C(F)F)c(C(=O)N(Cc2cc(-c3cccs3)ccc2Cl)C2CC2)s1` [I.97], for which the logP is 4.26. On the same count and under the same terms, for `Cn1nc(C(F)F)c(C(=O)N(Cc2ccccc2OC2CCOCC2)C2CC2)c1F` [I.169] the value was 2.80. The same measure, in the same setting: the value for `COc1ccsc1-c1ccc(C)cc1CN(C(=O)c1cn(C)nc1C(F)F)C1CC1` [I.124] was 3.46. On the same count and under the same terms, the value for `Cn1nc(C(F)F)c(C(=O)N(Cc2cc(C34CCCC3O4)ccc2Cl)C2CC2)c1F` (stereo not drawn) [I.17] was 3.59; that for “N-cyclopropyl-3-(difluoromethyl)-5-fluoro-1-methyl-N-[2-(3-methyloxetan-3-yl)benzyl]-1H-pyrazole-4-carboxamide [I.15]” was 1.94. As to `CC(C)c1ccc(-c2cnn(C)c2)cc1CN(C(=O)c1c(C(F)F)nn(C)c1F)C1CC1` [I.65], the lipophilicity (logP) amounted to 3.13. Same read-out and setting: for `Cc1ccc(CN(C(=O)c2c(C(F)F)nn(C)c2F)C2CC2)c(C2(C)OCCO2)c1` [I.21] the value was 3.25; for `Cc1ccc(C2(C)CO2)c(CN(C(=O)c2c(C(F)F)nn(C)c2F)C2CC2)c1F` (stereo not drawn) [I.12], 3.17; for `Cn1cc(C(=O)N(Cc2ccccc2-c2ccco2)C2CC2)c(C(F)F)c1` [I.42], 3.44. `Cc1ccc(-c2cnn(C)c2)c(CN(C(=O)c2c(C(F)F)nn(C)c2Cl)[C@@H]2C[C@H]2C)c1` (relative stereo) [I.64] came in with a logP of 2.86.

On to `COc1ccsc1-c1ccc(C)cc1CN(C(=O)c1c(C(F)F)nn(C)c1F)C1CC1C` (stereo not drawn) [I.127], for which the logP is listed as 4.21.

In the case of `Cn1nc(C(F)F)c(C(=O)N(Cc2c(C3(C)CO3)ccc(Cl)c2F)C2CC2)c1F` (stereo not drawn) [I.13], the logP is 3.29.

`Cn1nc(C(F)F)c(C(=O)N(Cc2c(C3(C)CO3)ccc(Cl)c2F)C2CC2)c1Cl` (stereo not drawn) [I.10]: the logP came to 3.37.

Consider `O=C(c1ccsc1I)N(Cc1ccccc1-c1ccco1)C1CC1` [I.33], for which the logP was determined as 4.01. The same measure, in the same setting: for `Cc1nc(C(F)F)c(C(=O)N(Cc2cc(-c3ccsc3)ccc2Cl)C2CC2)s1` [I.96] the value was 4.14; for `Cn1nc(C(F)F)c(C(=O)N(Cc2ccccc2C23CCCC2O3)C2CC2)c1F` (stereo not drawn) [I.19], 3.12. Same read-out and setting: for `Cc1ccc(-c2c(C)nn(C)c2C)c(CN(C(=O)c2c(C(F)F)nn(C)c2Cl)C2CC2)c1` [I.117] the value was 2.80; for `CC(C)c1ccc(-c2cn(C)c3ccccc23)cc1CN(C(=O)c1c(C(F)F)nn(C)c1F)C1CC1` [I.153], 4.74. Still for that read-out and setting: for `Cc1ccc(-c2ccn(C)c2)c(CN(C(=O)c2c(C(F)F)nn(C)c2F)C2CC2)c1` [I.51] the value was 3.55; for `Cn1nc(C(F)F)c(C(=S)N(Cc2ccccc2-c2ccc(Cl)s2)C2CC2)c1Cl` [I.142], 5.19; for `Cn1cc(C(=O)N(Cc2cc(-c3cccs3)ccc2Cl)C2CC2)c(C(F)F)c1` [I.90], 4.16. Take `Cc1ccc(-c2c(C)nn(C)c2C)c(CN(C(=O)c2cn(C)nc2C(F)F)C2CC2)c1` [I.116]: the logP amounted to 2.45. The same measure, in the same setting: the value for `Cc1ccc(-c2cscc2C)c(CN(C(=O)c2cn(C)nc2C(F)F)C2CC2)c1` [I.109] was 3.83. The same measure, in the same setting: the value for `Cn1nc(C(F)F)c(C(=O)N(Cc2cc(Cl)ccc2C23CCCC2O3)C2CC2)c1F` (stereo not drawn) [I.18] was 3.60; that for `Cc1ccc(-c2cnn(C)c2)c(CN(C(=O)c2c(C(F)F)nn(C)c2F)[C@@H]2C[C@H]2C)c1` (relative stereo) [I.63] was 2.82; that for `Cn1nc(C(F)F)c(C(=O)N(Cc2ccccc2C23CCCCC2O3)C2CC2)c1F` (stereo not drawn) [I.24] was 3.48. The same measure, in the same setting: for `CC(c1ccccc1Cc1ccc(Cl)cn1)N(C(=O)c1c(C(F)F)nn(C)c1F)C1CC1` (stereo not drawn) [I.171] the value was 3.68; for `Cc1cc(C(=O)N(Cc2cc(-c3ccsc3)ccc2Cl)C2CC2)c(C)o1` [I.98], 4.59.

Compound `Cn1nc(C(F)F)c(C(=O)N(Cc2cc(Cl)ccc2C23CCCCC2O3)C2CC2)c1F` (stereo not drawn) [I.23] registered a logP of 3.99.

Compound `Cc1ccc(-c2csc3ccccc23)c(CN(C(=O)c2cn(C)nc2C(F)F)C2CC2)c1` [I.161] registered a logP of 4.15. As for `Cc1ccc(-c2csc3ccccc23)c(CN(C(=O)c2c(C(F)F)nn(C)c2Cl)C2CC2C)c1` (stereo not drawn) [I.167], the logP is recorded as 5.05. Same read-out and setting: for `Cc1ccc(-c2ccn(C)c2)c(CN(C(=O)c2cn(C)nc2C(F)F)C2CC2)c1` [I.52] the value was 3.19.

`Cn1nc(C(F)F)c(C(=O)N(Cc2ccccc2C2(C)OCCO2)C2CC2)c1F` [I.20]: the logP amounted to 2.94.

Take `Cn1nc(C(F)F)c(C(=S)N(Cc2ccccc2-c2ccsc2)C2CC2)c1Cl` [I.80]: the logP is 4.39. Still for that read-out and setting: the value for `Cc1ccc(-c2csc3ccccc23)c(CN(C(=O)c2c(C(F)F)nn(C)c2F)C2CC2C)c1` (stereo not drawn) [I.163] was 4.98; that for `Cn1nc(C(F)F)c(C(=O)N(Cc2ccccc2-c2ccco2)C2CC2)c1Cl` [I.30] was 3.46. The same measure, in the same setting: the value for `Cc1ccc(-c2csc3ccccc23)c(CN(C(=O)c2cn(C)nc2C(F)F)C2CC2C)c1` (stereo not drawn) [I.165] was 4.46. Still for that read-out and setting: the value for `Cc1ccc(-c2cnn(C)c2)c(CN(C(=O)c2cn(C)nc2C(F)F)[C@@H]2C[C@H]2C)c1` (relative stereo) [I.62] was 2.66. Compound `Cc1ccc(-c2coc3ccccc23)c(CN(C(=O)c2cn(C)nc2C(F)F)C2CC2)c1` [I.135] showed a logP of 3.89. The compound `Cn1nc(C(F)F)c(C(=O)N(Cc2ccccc2C23CCCCCC2O3)C2CC2)c1F` (stereo not drawn) [I.26] displayed a logP of 3.94. The same measure, in the same setting: the value for `Cn1nc(C(F)F)c(C(=O)N(Cc2c(C3(C)CO3)ccc(Cl)c2Cl)C2CC2)c1F` (stereo not drawn) [I.9] was 3.55; that for `Cn1nc(C(F)F)c(C(=O)N(Cc2c(C3(C)CO3)ccc(Cl)c2Cl)C2CC2)c1Cl` (stereo not drawn) [I.11] was 3.67; that for `Cc1ccc(-c2csc3ccccc23)c(CN(C(=O)c2c(C(F)F)nn(C)c2Cl)C2CC2C)c1` (stereo not drawn) [I.164] was 5.19. Same read-out and setting: the value for `Cc1ccc(-c2csc3ccccc23)c(CN(C(=O)c2c(C(F)F)nn(C)c2Cl)C2CC2)c1` [I.162] was 4.83; that for `Cc1ccc(-c2c(C)nn(C)c2C)c(CN(C(=O)c2c(C(F)F)nn(C)c2F)C2CC2)c1` [I.115] was 2.71; that for `Cc1cc(C(=O)N(Cc2cc(-c3cccs3)ccc2Cl)C2CC2)c(C)o1` [I.99] was 4.72. The same measure, in the same setting: for `Cn1nc(C(F)F)c(C(=O)N(Cc2cc(C34CCCCC3O4)ccc2Cl)C2CC2)c1F` (stereo not drawn) [I.22] the value was 3.99; for `Cn1cc(C(=O)N(Cc2cc(-c3ccsc3)ccc2Cl)C2CC2)c(C(F)F)c1` [I.92], 4.06. Consider `Cc1ccc(-c2coc3ccccc23)c(CN(C(=O)c2c(C(F)F)nn(C)c2Cl)C2CC2)c1` [I.133], for which the logP worked out at 4.49. Same read-out and setting: the value for `Cc1nc(C(F)F)c(C(=O)N(Cc2cc(-c3ccc(Cl)s3)ccc2Cl)C2CC2)s1` [I.151] was 5.00; that for `Cn1nc(C(F)F)c(C(=S)N(Cc2ccccc2-c2cccs2)C2CC2)c1Cl` [I.81] was 4.49.

Staying with this data set, now noted: HPLC, C 18, 40° C., 0.1% aqueous formic acid and acetonitrile.
In turn, “N-cyclopropyl-3-(difluoromethyl)-5-fluoro-1-methyl-N-[2-(3-methyloxetan-3-yl)benzyl]-1H-pyrazole-4-carboxamide [I.15]” showed a logP of 1.94. On the same count and under the same terms, for `CC(C)c1ccc(Cl)cc1C=NO` [1-(5-chloro-2-isopropylphenyl)-N-hydroxymethanimine] the value was 3.17.

The same data set, now with this note: logP.
`C=C(C)c1ccc(Cl)cc1CN(C(=O)c1c(C(F)F)nn(C)c1F)C1CC1` [N-[5-chloro-2-(prop-1-en-2-yl)benzyl]-N-cyclopropyl-3-(difluoromethyl)-5-fluoro-1-methyl-1H-pyrazole-4-carboxamide] showed a chromatographic logP of 3.96.

Still in this data set, the particulars now being: reversed-phase HPLC column (C 18), HPLC, C 18, 40° C., 0.1% aqueous formic acid and acetonitrile; read-out: logP.
Regarding `Clc1ccc(-c2ccc(Cl)s2)c(CNC2CC2)c1` [IIa.7, N-[5-chloro-2-(5-chloro-2-thienyl)benzyl]cyclopropanamine], the chromatographic logP amounted to 1.51. Regarding `Clc1ccc(-c2ccco2)c(CNC2CC2)c1` [IIa.1, N-[5-chloro-2-(2-furyl)benzyl]cyclopropanamine], the chromatographic logP turned out to be 0.99. Still for that read-out and setting: for `Clc1ccc(-c2ccsc2)c(CNC2CC2)c1` [IIa.5, N-[5-chloro-2-(3-thienyl)benzyl]cyclopropanamine] the value was 1.12; for `CC(NC1CC1)c1ccccc1-c1ccsc1` (stereo not drawn) [IIa.4, N-{1-[2-(3-thienyl)phenyl]ethyl}cyclopropanamine], 1.42. For `Clc1ccc(-c2cccs2)c(CNC2CC2)c1` [IIa.2, N-[5-chloro-2-(2-thienyl)benzyl]cyclopropanamine], the chromatographic logP stood at 1.1. Still for that read-out and setting: for `Clc1ccc(-c2ccccc2CNC2CC2)s1` [IIa.6, N-[2-(5-chloro-2-thienyl)benzyl]cyclopropanamine] the value was 1.28; for `CC(C)c1ccc(Cl)cc1CN(C(=O)c1c(C(F)F)nn(C)c1F)C1CC1` [N-(5-chloro-2-isopropylbenzyl)-N-cyclopropyl-3-(difluoromethyl)-5-fluoro-1-methyl-1H-pyrazole-4-carboxamide], 4.06.

In the case of `Clc1ccc(-c2ccsc2)cc1CNC1CC1` [IIb.3, N-[2-chloro-5-(3-thienyl)benzyl]cyclopropanamine], the chromatographic logP came out at 1.28.

As to `CC(C)c1ccc(Cl)cc1C=NO` [1-(5-chloro-2-isopropylphenyl)-N-hydroxymethanimine], the chromatographic logP was found to be 2.9. `Clc1ccc(-c2ccc(Cl)c(CNC3CC3)c2)s1` [IIb.4, N-[2-chloro-5-(5-chloro-2-thienyl)benzyl]cyclopropanamine]: the chromatographic logP amounted to 1.58. Still for that read-out and setting: the value for `Clc1ccc(-c2ccco2)cc1CNC1CC1` [IIb.1, N-[2-chloro-5-(2-furyl)benzyl]cyclopropanamine] was 1.08.
